Laboratory results from ChEMBL document CHEMBL1130697, “C24 and C25 substituted marcfortine A derivatives” (Bioorg Med Chem Lett, 1998).
Active and inactive are the calls of the source. No cut-off for these calls is given here.

test system: Gerbillinae; assay: Anthelmintic activity against immunosuppressed Mongolian gerblis(jirds) inoculated with Haemonchus contortus and Trichostrongylus colubriform; not active; type: functional

Row | SMILES | Activity
1 | CN1C(=O)[C@@]23CCCCN2C[C@@]12C[C@@]1(C(=O)Nc4c1ccc1c4OC=CC(C)(C)O1)C(C)(C)[C@H]2C3 | inactive
2 | CN1C(=O)[C@@]23CCCCN2C[C@@]12C[C@@]1(C(=O)Nc4c1ccc1c4OCC4(CO4)C(C)(C)O1)C(C)(C)[C@H]2C3 (stereo not given in full) | inactive
3 | CC1=COc2c(ccc3c2NC(=O)[C@@]32C[C@@]34CN5CCCC[C@]5(C[C@@H]3C2(C)C)C(=O)N4C)OC1(C)C | inactive
4 | CN1C(=O)[C@@]23CCCCN2C[C@@]12C[C@@]1(C(=O)Nc4c1ccc(O)c4O)C(C)(C)[C@H]2C3 | inactive
5 | C=C1COc2ccc3c(c2OC1)NC(=O)[C@@]31C[C@@]23CN4CCCC[C@]4(C[C@@H]2C1(C)C)C(=O)N3C | inactive
6 | CN1C(=O)[C@@]23CCCCN2C[C@@]12C[C@@]1(C(=O)Nc4c1ccc1c4OCC(C)(O)C(C)(C)O1)C(C)(C)[C@H]2C3 (stereo not given in full) | inactive
7 | CN1C(=O)[C@]23C[C@@H]4C(C)(C)[C@@]5(C[C@@]41CN2CC[C@@]3(C)O)C(=O)Nc1c5ccc2c1OC=CC(C)(C)O2 | inactive
8 | CN1C(=O)[C@@]23CCCCN2C[C@@]12C[C@@]1(C(=O)Nc4c1ccc1c4OCC(O)C(C)(C)O1)C(C)(C)[C@H]2C3 (stereo not given in full) | inactive
9 | CN1C(=O)[C@@]23CCCCN2C[C@@]12C[C@@]1(C(=O)Nc4c1ccc1c4OCC(=O)C(C)(C)O1)C(C)(C)[C@H]2C3 | inactive

test system: Gerbillinae; assay: Anthelmintic activity against immunosuppressed Mongolian gerblis(jirds) inoculated with Haemonchus contortus and Trichostrongylus colubriform;found to be active; type: functional

Row | SMILES | Activity
10 | C=C1COc2c(ccc3c2NC(=O)[C@@]32C[C@@]34CN5CCCC[C@]5(C[C@@H]3C2(C)C)C(=O)N4C)OC1(C)C | Active
